Like-named read-outs stand apart in the source and are kept apart here.
B1: Methylobacterium Thebainfresser morphinan N-demethylase (MND), SEQ ID NO: 2, His-tag purified from E. coli PLUSE cells (Methylobacterium thebainfresser) (protein)
chain: MTEKTPKLGSEAANKLGLEADISRRDMVGGVLIGAGAALLASVAPGAINRALAEGPSRLPPVRGSGTGWRGIEIADDWQGPGGIGDYSKSNGNTGKVIRDAHAGIRNHEFEKRLATASDVNEKYDVIIVGAGISGLHSAYDLLRQRPNIKILMLDNHAIFGGEAKQNKMEVDGQALYGGQGPTLYSFVGDDLPSWKGNPALASIMELKTYPKEFGLPTETTWSDKKTDVKVPVDLWFSMASPSQTDIAYRWEGSGLVKNPLLNSFRDAPVSQKSKDAIALMLAVDNGAKRPVEPVGDVSTWVDNMTYAEFLKKVYGADDEAVQLVDQIDVVGTAGLGGDVFNASLAALGLNQYGGIELWNGGLQGLSLPTGNGGVGRSILRKFMPGAIKGGTSLTDTLFGDVNWDVLDHANNNVRIRLNSTVVGVQNNETPTGTKDATVFFLHDNRLYKAKGKAVIMGTPQQVNRNVCLNLPNHLSEAMGDFHHAPILVVNVALRNWKSMEKAGVSGLRWFGEYPGIGQIVRSMVIDGKEIMPCDPSKPAVMTFYIPMNQATRGMPRGEQAMTARHMLFNLTFADIELLIRDQLTRAFGSYGFDAKRDIAAIVANRWGHALVCAGPGFYTGLNGKPPVSKVITAGWDRVAFGHSDLSGRQAWTVAVNYARTAVANVFPKI

Assays:
[1] = system: MND enzyme; type: biochemical, Methylobacterium Thebainfresser; settings: for substrate acceptance / detectable N-demethylase activity (in words): overnight assays, purified MND enzyme from PLUSE cells
Description: Samples were injected by the UFLCXR (Shimadzu) autosampler/pump system using a 0.5 ml/min flow rate prior to separation using a Gemini C-18 column (150×2.00 mm, 5μ, 110 Å; Phenomenex) and introduction into the QTRAP 6500. The program consisted of a binary gradient with solvent A (5% acetonitrile/5% MeOH/10 mM ammonium acetate/15 mM NH4OH) and solvent B (90% acetonitrile/10 mM ammonium acetate/15 mM NH4OH) and the following gradient: 0-2.0 min 0% B, 2.0-9.0 min 0-44% B, 9.0-11.0 min 44-100% solvent B, 11-13 min 100% B and 100-0% solvent B from 13-14 min and held at 0% B for an additional 8 min. EPI scans for each substrate and predicted product mass were included for each enzyme assay and source parameters were identical to those used for the QTRAP 4000 above except CE and DP which were based upon the optimum for each individual compound. Masses used can be found in table 3. Data were analyzed using Analyst 1.6.2.
Substrates were prepared in a 1 mM stock concentration then diluted to 100 μM working concentration for use in enzyme assays with the MND enzyme. […] No more than 15% ethanol was added to the 1 mM concentrations. […] All enzyme assays contained 30 mM potassium phosphate buffer pH 8.0, 7.5 μM substrate and 100 μl of purified MND enzyme (˜36 μg) in a total volume of 200 μl. Duplicate assays of each substrate using purified pET28a empty vector were performed as negative control and an assay containing thebaine and MND enzyme was used as a positive control. Assays were incubated at 30° C. overnight prior to ethyl acetate extraction. All samples were diluted 10 fold with 50% MeOH and analyzed on the QTRAP 6500 using method 2 and a 20 μl injection volume. The percentage of substrate demethylation was calculated based upon reduction of substrate in the enzyme assay as compared to the negative control.
Purified MND enzyme from PLUSE cells was used to test various substrates containing a methylated nitrogen (FIG. 16) in overnight assays.

[2] = Proteinase K treatment and cofactor addition, conversion of thebaine to northebaine; type: biochemical; settings: 1500 pmol cofactor added to no enzyme and pET28a empty vector controls
Description: The first of two assays performed included adding 1500 pmol FAD to the 200 MND enzyme assay including 100 μl purified MND (˜36 μg) and 1500 pmol thebaine in 30 mM potassium phosphate buffer pH 7.0 with and without a prior 1 hour digest (of MND enzyme) with Proteinase K. Controls included a no enzyme control, FAD addition to a no enzyme control, a pET28a empty vector control, a pET28a empty vector control with FAD, and a pET28a empty vector control digested with Proteinase K followed by FAD addition. Assays were allowed to incubate for 20 minutes and then processed as in section 23.0. A second set of assays was performed, in duplicate, to validate the results found in the previous assay in addition to testing more cofactors. This assay included the following conditions; MND enzyme, MND enzyme pre-digested with Proteinase K for 1 hour, MND enzyme digested with Proteinase K in the presence of 1% SDS and 10 mM EDTA, MND enzyme with 1% SDS and 10 mM EDTA (no Proteinase K pre-digestion), pET28a empty vector, pET28a empty vector pre-digested with Proteinase K for 1 hour, pET28a empty vector digested with Proteinase K in the presence of 1% SDS and 10 mM EDTA, MND enzyme with the addition of 1500 pmol FMN, pET28a empty vector with the addition of 1500 pmol FMN, MND enzyme with the addition of 1500 pmol PLP and pET28a empty vector with the addition of 1500 pmol PLP. Assays were allowed to proceed for 20 minutes prior to processing and quantitation as described in section 23.0.

[3] = system: MND enzyme; assay: Purified MND enzyme assay using thebaine as substrate; type: biochemical, Methylobacterium Thebainfresser
Description: […]. No enzyme, boiled enzyme, and purified empty vector controls were included. MND enzyme was heated for 10 min at 95° C. for the boiled enzyme control. Assays were extracted twice with 400 μl ethyl acetate and dried to completion with N2. Dried samples were resuspended in 150 μl of 50% MeOH, filtered (low protein binding 0.2 μm, 4 mm, PTFE; Millipore), and diluted 100 fold prior to LC-MS/MS analysis on the QTRAP 6500 using method 1 and a 5 μl injection volume.
Enzyme assays using the purified MND enzyme protein produced in PLUSE cells were done, in duplicate, as indicated above with the following exceptions: 10 μl of 100 μM codeine standard was added to each assay, prior to extraction, as an internal standard. Dried extracts were resuspended in 200 μl of 50% MeOH, filtered (0.2 μm, 4 mm, PTFE, Millipore). Samples were diluted 50 fold prior to a 5 μl injection onto the QTRAP 6500 using method 1.

[4] = substrate: COC1=CC=C2[C@H]3Cc4ccc(OC)c5c4[C@@]2(CCN3C)[C@H]1O5; assay: purified protein, by the assay type; settings: pH 7.0; 30.0 °C
[5] = overnight enzyme assay at 30° C., 7.5 μM substrate, ~36 μg purified MND enzyme, pH 8.0, reduction of substrate vs empty vector control, percentages approximate

Row | Molecule | Percent demethylated [1, 5] [%] | other results
1 | COc1ccc(CC2c3cc(OC)c(OC)cc3CCN2C)cc1OC (centres unmarked) [Laudanosine] | 31 | 
2 | CN1[C@@H]2CC[C@H]1C[C@@H](OC(=O)[C@H](CO)c1ccccc1)C2 [Hyoscyamine] | 18 | substrate acceptance / detectable N-demethylase activity (in words) [1]: accepted
3 | COc1ccc2c(c1OC)C(=O)O[C@@H]2[C@H]1c2c(cc3c(c2OC)OCO3)CCN1C [Noscapine (Narcotine)] | 20 | 
4 | COC1=CC=C2[C@H]3Cc4ccc(O)c5c4[C@@]2(CCN3C)[C@H]1O5 [Oripavine] | 100 | 
5 | COC1=C[C@]23CCN(C)[C@H](Cc4ccc(OC)c(O)c42)C3=CC1=O [Salutaridine] | 100 | 
6 | COc1ccc(C[C@H]2c3cc(O)c(OC)cc3CCN2C)cc1O [(S)-Reticuline] | 55 | 
7 | COc1ccc2c3c1O[C@H]1[C@@H](O)C=C[C@H]4[C@@H](C2)N(C)CC[C@@]341 [Codeine] | 100 | 
8 | CN1[C@@H]2C[C@@H](OC(=O)[C@H](CO)c3ccccc3)C[C@H]1[C@@H]1O[C@@H]12 [Scopolamine] | 65 | substrate acceptance / detectable N-demethylase activity (in words) [1]: accepted
9 | COc1cc2c(cc1O)[C@H](CCc1cc(O)c(OC)c(OC)c1)N(C)CC2 [Autumnaline] | 11 | 
10 | COc1ccc(C[C@H]2c3cc(OC)c(OC)cc3CCN2C)cc1O [Laudanine (Laudanidine)] | 14 | 
11 | CC(=O)Oc1ccc2c3c1O[C@H]1[C@@H](OC(C)=O)C=C[C@H]4[C@@H](C2)N(C)CC[C@@]341 [Heroin] | 70 | 
12 | COc1ccc(C[C@@H]2c3cc(O)c(OC)cc3CCN2C)cc1O [(R)-Reticuline] | 25 | 
13 | COc1ccc(CC2c3cc(OC)c(O)cc3CCN2C)cc1O (centres unmarked) [Protosinomenine] | 60 | 
14 | CN1[C@@H]2CC[C@H]1CC(=O)C2 [Tropinone] | 40 | substrate acceptance / detectable N-demethylase activity (in words) [1]: accepted
15 | COc1cc(C[C@@H]2c3cc(O)c(OC)cc3CCN2C)ccc1O [Orientaline] | 100 | 
16 | Cc1ncc(COP(=O)(O)O)c(C=O)c1O [PLP] |  | background demethylation of thebaine to northebaine on cofactor addition [2]: did not
17 | Isoorientaline | 86 | 
18 | COc1ccc2c3c1O[C@H]1C[C@@H](O)C=C[C@@]31CCN(C)C2 [Galanthamine] | 27 | substrate acceptance / detectable N-demethylase activity (in words) [1]: accepted
19 | COc1ccc2c3c1O[C@H]1C(=O)C=C[C@H]4[C@@H](C2)N(C)CC[C@]314 [Codeinone] | 100 | 
20 | COC1=CC=C2[C@H]3Cc4ccc(OC)c5c4[C@@]2(CCN3C)[C@H]1O5 [Thebaine] | 100 | conversion to N-demethylthebaine (northebaine) ([3]; aqueous solution at 30° C.): 100%; substrate depletion (in words) ([3]; overnight assay, purified MND enzyme, 1500 pmol thebaine, pH 8.0, 30° C.): depleted completely
21 | COC1=C[C@]23CCN(C)[C@H](Cc4ccc(OC)c(O)c42)C3=C[C@@H]1O [Salutaridinol] | 100 | 
22 | CN1CC[C@]23c4c5ccc(O)c4O[C@H]2C(=O)C=C[C@H]3[C@H]1C5 [Morphinone] | 100 | 
23 | Cc1cc2nc3c(=O)[nH]c(=O)nc-3n(C[C@H](O)[C@H](O)[C@H](O)COP(=O)(O)OP(=O)(O)OC[C@H]3O[C@@H](n4cnc5c(N)ncnc54)[C@H](O)[C@@H]3O)c2cc1C [FAD, flavin adenine dinucleotide] |  | background demethylation of thebaine to northebaine on cofactor addition [2]: slight increase
24 | CN1CC[C@]23c4c5ccc(O)c4O[C@H]2C(=O)CC[C@@]3(O)[C@H]1C5 [Oxymorphone] | 73 | 
25 | CN1[C@@H](CC(=O)c2ccccc2)CCC[C@H]1C[C@H](O)c1ccccc1 [(−)-Lobeline] | 20 | substrate acceptance / detectable N-demethylase activity (in words) [1]: accepted
26 | CN1CC[C@]23c4c5ccc(O)c4O[C@H]2[C@@H](O)C=C[C@H]3[C@H]1C5 [Morphine] |  | Percent demethylated ([1]; pH 8): 100%
27 | Cc1cc2nc3c(=O)[nH]c(=O)nc-3n(C[C@H](O)[C@H](O)[C@H](O)COP(=O)(O)O)c2cc1C [FMN, flavin mononucleotide] |  | background demethylation of thebaine to northebaine on cofactor addition [2]: increase in background activity
28 | COc1cc2c3c(c1O)-c1c(cccc1OC)C[C@@H]3N(C)CC2 [Isothebaine] | 35 | substrate acceptance / detectable N-demethylase activity (in words) [1]: accepted
29 | CN(C)Cc1c[nH]c2ccccc12 [Gramine] | 51 | substrate acceptance / detectable N-demethylase activity (in words) [1]: accepted
30 | B1 |  | Km [4]: 0.97 µM; Vmax [4]: 0.32 pmol/s; kcat [4]: 0.00065 s⁻¹

— patent US11542481B2, “Morphinan N-demethylase isolated from the methylobacterium thebainfresser and methods of use thereof” (priority 2017, dated 2023)
